Measured values published in patent US9358232B2, “Methods for treating cancer using TOR kinase inhibitor combination therapy” (Signal Pharmaceuticals, LLC, priority 2013, dated 2016).
Entries after “also recorded” stand apart in the source; their conditions may differ.

Columns and labels:
WSU-DLCL2 xenograft = assay: DLBCL xenograft model; type: in vivo, SCID mice; conditions: for tumor volume reduction (TVR): Day 35, end of 3-week dosing, vs vehicle control (FIG. 1); for decrease in tumor volume (TVR): Day 34, vs vehicle, Compound 1 10 mg/kg QD, Compound A 30 mg/kg QD, alone or combined (FIGS. 2-3)
Procedure: Severe combined immunodeficiency (SCID) mice were implanted with human DLBCL cell line (WSU-DLCL2) into the flank. Treatment of compounds started between Day 11 and Day 14 after cell inoculation. Randomized groups of mice (n=9 to 10/group) were treated with the single agents (Compound 1, Compound A or Compound AA) or the combination of Compound 1/Compound A, Compound A/Compound AA, or Compound 1/Compound AA. Compounds were administered orally on a once daily (Compound 1 and Compound A) or twice daily […] schedule for 21 days. The positive control consisted of CHOP therapy (combination of cyclophosphamide, doxorubicin, vincristine and prednisone). Compound 1 and Compound A were formulated in CMC-Tween (carboxymethylcellulose/Tween 80/deionized water). Compound AA was suspended in DSP (dimethylsulphoxide/solutol/phosphate buffered saline).
Initial studies were conducted in order to determine the antitumor activity of Compound 1 and to identify a dose level for the combination studies. In the WSU-DLCL2 xenograft model, Compound 1 inhibited tumor growth in a dose-dependent fashion. […] In a subsequent combination study, Compound 1 was dosed at 10 mg/kg, once daily (QD). Compound A and Compound AA were dosed at 30 mg/kg (QD) and 50 mg/kg (BID), respectively.

BTK = BTK (Homo sapiens, UniProt Q06187); conditions: enzymatic and cellular assays; cited from earlier work
B-cell = conditions: cited from earlier work
[1] = combination study, Compound AA 50 mg/kg BID
[2] = combination study, single agents or in combination

BTK, sequence (Q06187 whole entry): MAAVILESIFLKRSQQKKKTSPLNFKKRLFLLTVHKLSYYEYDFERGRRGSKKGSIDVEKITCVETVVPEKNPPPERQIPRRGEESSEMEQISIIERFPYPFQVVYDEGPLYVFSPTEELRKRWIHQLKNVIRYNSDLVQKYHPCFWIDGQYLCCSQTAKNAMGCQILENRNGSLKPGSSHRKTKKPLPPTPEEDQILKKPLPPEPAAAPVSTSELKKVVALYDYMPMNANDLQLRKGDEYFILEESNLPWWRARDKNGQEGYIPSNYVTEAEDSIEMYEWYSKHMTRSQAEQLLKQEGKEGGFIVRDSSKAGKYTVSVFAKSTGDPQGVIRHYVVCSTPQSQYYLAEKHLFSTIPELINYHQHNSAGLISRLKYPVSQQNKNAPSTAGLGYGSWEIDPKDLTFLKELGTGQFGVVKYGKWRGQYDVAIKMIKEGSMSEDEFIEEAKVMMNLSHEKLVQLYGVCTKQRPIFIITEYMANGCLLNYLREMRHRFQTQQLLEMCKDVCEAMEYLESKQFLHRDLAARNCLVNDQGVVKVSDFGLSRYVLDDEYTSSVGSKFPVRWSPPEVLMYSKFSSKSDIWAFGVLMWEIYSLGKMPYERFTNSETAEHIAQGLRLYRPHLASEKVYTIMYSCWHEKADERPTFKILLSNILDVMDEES

Row | SMILES | tumor volume reduction (TVR) (WSU-DLCL2 xenograft; 1 mg/kg oral once daily) [%] | tumor volume reduction (TVR) (WSU-DLCL2 xenograft; 3 mg/kg oral once daily) [%] | decrease in tumor volume (TVR) (WSU-DLCL2 xenograft; [1]) [%] | body weight loss (WSU-DLCL2 xenograft; [2]) | body weight loss (WSU-DLCL2 xenograft; initial dose study, 1, 3 and 10 mg/kg (FIG. 1)) | antitumor activity as single agent (WSU-DLCL2 xenograft; [1]) | inhibition of BTK (BTK) | effect on B-cell proliferation and activation (B-cell)
1 | CO[C@H]1CC[C@H](N2C(=O)CNc3ncc(-c4ccc(C(C)(C)O)nc4)nc32)CC1 [Compound 1, 7-(6-(2-hydroxypropan-2-yl)pyridin-3-yl)-1-((1r,4r)-4-methoxycyclohexyl)-3,4-dihydropyrazino-[2,3-b]pyrazin-2(1H)-one] | ~22 | ~28 | 29 | No significant body weight loss | No significant body weight loss |  |  | 
2 | Cc1nc2cccc(N)c2c(=O)n1C1CCC(=O)NC1=O (centres unmarked) [Compound A, 3-(5-Amino-2-methyl-4-oxoquinazolin-3(4H)-yl)-piperidine-2,6-dione] |  |  | 30 | No significant body weight loss |  |  |  | 
3 | C=CC(=O)Nc1cccc(Nc2nc(Nc3ccc(OCCOC)cc3)ncc2F)c1 [Compound AA, N-(3-(5-fluoro-2-(4-(2-methoxyethoxy)phenylamino)pyrimidin-4-ylamino)phenyl)acrylamide] |  |  |  | No significant body weight loss |  | No significant antitumor activity; also recorded: inactive | covalent, irreversible inhibition of BTK | inhibit B-cell proliferation and activation
